Like-named read-outs stand apart in the source and are kept apart here.
Columns and labels:
Type in all cases: in vivo
[1] = tested on: Crabgrass (Digitaria sanguinalis L.); assay: Test Example 7: pot test, Example 8 suspension concentrate with Frigate; settings: 20 days after treatment, duplicate; for inhibition at 5 g/ha / inhibition at 10 g/ha / inhibition at 20 g/ha / inhibition at 40 g/ha: Digitaria sanguinalis, 480 h, read-out: Growth Inhibition (%) of Crabgrass; for inhibition at 20 g/ha: Compound A 20 g/ha; for inhibition at 40 g/ha: Compound A 40 g/ha
Description: Crabgrass (Digitaria sanguinalis L.) seeds were sown in 1/1,000,000-hectare pots filled with upland soil and arranged in a duplicate system. When the crabgrass plants grew to a 3- to 3.3-leaf stage, the oil-based suspension concentrate obtained in Example 8 was diluted with 500 liters/hectare of water containing a predetermined amount of Frigate and was applied foliarly to the plants with a small spray gun.
Twenty days after treatment, the growth inhibition of plants was evaluated with visual observation in the same manner as in Teat Example 1 and are shown in Table 7.

[2] = tested on: Common lambsquarters (Chenopodium album L.); assay: Test Example 12: field plot test, growth inhibition; settings: Example 8 suspension concentrate, 27 days after treatment, field plots; for inhibition at 40 g/ha: Compound A 40 g/ha; for inhibition at 60 g/ha: Compound A 60 g/ha
Description: (§1) In field plots of 3 m² (1 m × 3 m) unit arranged in a duplicate system, seeds of corn, crabgrass (Digitaria sanguinalis L.), green foxtail (Setaria viridis L.), common lambsquarters (Chenopodium album L.), slender amaranth (Amaranthus virdis L.) and velvetleaf (Abutilon theophrasti MEDIC.) were sown and grown. Also, barnyardgrass (Echinochloa crus-galli L.), henbit (Lamiun amplexlcaule L.), pale smartweed (Polygonum lapathifolium L.) and threeseeded copperleaf (Acalypha australis L.) were allowed to grow spontaneously. When the plants grew to certain stages (corn: 6.1 to 6.5-leaf stage, crabgrass: 2.0 to 4.5-leaf stage, green foxtail: 3.0 to 4.5-leaf stage, common lambsquarters: 4.0 to 8.0-leaf stage, slender amaranth: 1.0 to 4.0-leaf stage, velvetleaf: 2.0 to 3.5-leaf stage, barnyardgrass: 3.0 to 4.5-leaf stage, henbit: 2.0 to 5.0 cm, pale smartweed: 3.0 to 5.0-leaf stage and threeseeded copperleaf: 2.0 to 4.0-leaf stage), the oil-based suspension concentrate obtained in Example 8 was diluted with 200 liters/hectare of water containing a predetermined amount of Frigate and was applied foliarly to the plants with a small spray gun.
(§2) Twenty seven days after treatment, the growth inhibition of plants except for corn plants was evaluated with visual observation in the same manner as in Test Example 1 and are shown in Table 12.

[3] = tested on: Crabgrass (Digitaria sanguinalis L.); assay: as above; settings: 648 h, Example 8 suspension concentrate, 27 days after treatment, field plots, read-out: Growth Inhibition (%) DS; for inhibition at 40 g/ha: Compound A 40 g/ha; for inhibition at 60 g/ha: Compound A 60 g/ha
Description: as §1, §2

[4] = tested on: Velvetleaf (Abutilon theophrasti MEDIC.); assay: as above; settings: Example 8 suspension concentrate, 27 days after treatment, field plots; for inhibition at 40 g/ha: Compound A 40 g/ha
Description: as §1, §2

[5] = tested on: barnyardgrass (Echinochloa crus-galli L.); assay: as above; settings: 648 h, Example 8 suspension concentrate, 27 days after treatment, field plots, read-out: Growth Inhibition (%) EC
Description: as §1, §2

[6] = tested on: green foxtail (Setaria viridis L.); assay: as above; settings: 648 h, Example 8 suspension concentrate, 27 days after treatment, field plots, read-out: Growth Inhibition (%) SV
Description: as §1, §2

[7] = tested on: henbit (Lamiun amplexlcaule L.); assay: as above; settings: 648 h, Example 8 suspension concentrate, 27 days after treatment, field plots, read-out: Growth Inhibition (%) LA
Description: as §1, §2

[8] = tested on: pale smartweed (Polygonum lapathifolium L.); assay: as above; settings: Example 8 suspension concentrate, 27 days after treatment, field plots; for inhibition at 60 g/ha: Compound A 60 g/ha
Description: as §1, §2

[9] = tested on: slender amaranth (Amaranthus virdis L.); assay: as above; settings: 648 h, Example 8 suspension concentrate, 27 days after treatment, field plots, read-out: Growth Inhibition (%) AV; for inhibition at 40 g/ha: Compound A 40 g/ha; for inhibition at 60 g/ha: Compound A 60 g/ha
Description: as §1, §2

[10] = tested on: threeseeded copperleaf (Acalypha australis L.); assay: as above; settings: Example 8 suspension concentrate, 27 days after treatment, field plots; for inhibition at 40 g/ha: Compound A 40 g/ha
Description: as §1, §2

[11] = Frigate 0.125 % by volume, Compound A 5 g/ha
[12] = Chenopodium album, 648 h, Frigate 0.2 % by volume, read-out: Growth Inhibition (%) CA
[13] = Chenopodium album, 648 h, Frigate: No addition, read-out: Growth Inhibition (%) CA
[14] = Frigate 0.2 % by volume, Compound A 20 g/ha
[15] = Frigate 0.2 % by volume, Compound A 30 g/ha
[16] = Frigate 0.2 % by volume, Compound A 60 g/ha
[17] = Frigate 0.2 % by volume, Compound A 40 g/ha
[18] = Frigate: No addition, Compound A 60 g/ha

COc1cc(OC)nc(NC(=O)NS(=O)(=O)c2ncccc2C(=O)N(C)C)n1 [Compound A, N-[(4,6-dimethoxypyrimidin-2-yl)aminocarbonyl]-3-dimethylaminocarbonyl-2-pyridinesulfonamide]
50%: inhibition at 5 g/ha ([1]; Frigate 0.25 % by volume, Compound A 5 g/ha) | inhibition at 60 g/ha [2, 13]
75%: inhibition at 5 g/ha ([1]; Frigate 0.5 % by volume, Compound A 5 g/ha) | Growth Inhibition (%) CA [2, 14] | inhibition at 20 g/ha ([4]; Abutilon theophrasti, 648 h, Frigate 0.2 % by volume, Compound A 20 g/ha)
100%: inhibition at 40 g/ha ([1]; Frigate 0.125 % by volume) | inhibition at 20 g/ha ([1]; Frigate 0.25 % by volume) | inhibition at 40 g/ha ([1]; Frigate 0.25 % by volume) | inhibition at 20 g/ha ([1]; Frigate 0.5 % by volume) | Growth Inhibition (%) AT [4, 16] | inhibition at 20 g/ha [5, 14] | inhibition at 30 g/ha [5, 15] | inhibition at 40 g/ha [5, 17] | inhibition at 60 g/ha [5, 18] | inhibition at 20 g/ha [6, 14] | inhibition at 30 g/ha [6, 15] | inhibition at 40 g/ha [6, 17] | inhibition at 60 g/ha [6, 18] | inhibition at 20 g/ha ([8]; Persicaria lapathifolia, 648 h, Frigate 0.2 % by volume, Compound A 20 g/ha, read-out: Growth Inhibition (%) PL) | inhibition at 30 g/ha ([8]; Persicaria lapathifolia, 648 h, Frigate 0.2 % by volume, Compound A 30 g/ha, read-out: Growth Inhibition (%) PL) | inhibition at 60 g/ha ([8]; Persicaria lapathifolia, 648 h, Frigate: No addition, read-out: Growth Inhibition (%) PL) | inhibition at 20 g/ha [9, 14]
80%: inhibition at 20 g/ha ([2]; Chenopodium album, 648 h, Frigate 0.2 % by volume, Compound A 20 g/ha, read-out: Growth Inhibition (%) CA) | inhibition at 30 g/ha ([2]; Chenopodium album, 648 h, Frigate 0.2 % by volume, Compound A 30 g/ha, read-out: Growth Inhibition (%) CA) | inhibition at 30 g/ha ([4]; Abutilon theophrasti, 648 h, Frigate 0.2 % by volume, Compound A 30 g/ha) | inhibition at 40 g/ha ([4]; Abutilon theophrasti, 648 h, Frigate 0.2 % by volume) | Growth Inhibition (%) PL [8, 14]
98%: inhibition at 40 g/ha ([1]; Frigate 0.5 % by volume) | inhibition at 60 g/ha ([3]; Frigate: No addition) | inhibition at 20 g/ha [7, 14] | inhibition at 30 g/ha [7, 15] | inhibition at 40 g/ha [7, 17] | inhibition at 60 g/ha [7, 18] | inhibition at 60 g/ha ([8]; Persicaria lapathifolia, 648 h, Frigate 0.2 % by volume, read-out: Growth Inhibition (%) PL) | Growth Inhibition (%) AA [10, 16]
0%: inhibition at 5 g/ha ([1]; Frigate: No addition, Compound A 5 g/ha)
90%: inhibition at 20 g/ha ([1]; Frigate 0.125 % by volume) | inhibition at 20 g/ha [3, 14] | inhibition at 40 g/ha ([8]; Persicaria lapathifolia, 648 h, Frigate: No addition, Compound A 40 g/ha, read-out: Growth Inhibition (%) PL) | inhibition at 20 g/ha ([10]; Acalypha australis, 648 h, Frigate 0.2 % by volume, Compound A 20 g/ha, read-out: Growth Inhibition (%) AA) | inhibition at 30 g/ha ([10]; Acalypha australis, 648 h, Frigate 0.2 % by volume, Compound A 30 g/ha, read-out: Growth Inhibition (%) AA) | inhibition at 60 g/ha ([10]; Acalypha australis, 648 h, Frigate 0.2 % by volume, Compound A 60 g/ha, read-out: Growth Inhibition (%) AA) | inhibition at 40 g/ha ([10]; Acalypha australis, 648 h, Frigate: No addition, read-out: Growth Inhibition (%) AA) | inhibition at 60 g/ha ([10]; Acalypha australis, 648 h, Frigate: No addition, Compound A 60 g/ha, read-out: Growth Inhibition (%) AA)
65%: inhibition at 60 g/ha ([4]; Abutilon theophrasti, 648 h, Frigate: No addition, Compound A 60 g/ha)
40%: inhibition at 5 g/ha [1, 11] | inhibition at 40 g/ha [2, 13]
85%: inhibition at 10 g/ha ([1]; Frigate 0.125 % by volume, Compound A 10 g/ha) | inhibition at 40 g/ha ([1]; Frigate: No addition)
5%: Growth Inhibition (%) of Crabgrass ([1]; Frigate: No addition, Compound A 10 g/ha)
70%: inhibition at 20 g/ha ([1]; Frigate: No addition) | inhibition at 40 g/ha ([4]; Abutilon theophrasti, 648 h, Frigate: No addition) | Growth Inhibition (%) PL ([8]; Frigate: No addition, Compound A 40 g/ha)
95%: inhibition at 10 g/ha ([1]; Frigate 0.25 % by volume, Compound A 10 g/ha) | inhibition at 10 g/ha ([1]; Frigate 0.5 % by volume, Compound A 10 g/ha) | inhibition at 40 g/ha [2, 12] | inhibition at 30 g/ha [3, 15] | inhibition at 40 g/ha ([3]; Frigate 0.2 % by volume) | inhibition at 40 g/ha ([3]; Frigate: No addition) | inhibition at 60 g/ha ([4]; Abutilon theophrasti, 648 h, Frigate 0.2 % by volume, Compound A 60 g/ha) | inhibition at 40 g/ha ([8]; Persicaria lapathifolia, 648 h, Frigate 0.2 % by volume, Compound A 40 g/ha, read-out: Growth Inhibition (%) PL) | inhibition at 40 g/ha ([10]; Acalypha australis, 648 h, Frigate 0.2 % by volume, read-out: Growth Inhibition (%) AA)
45%: Growth Inhibition (%) of Crabgrass [1, 11]
99%: inhibition at 60 g/ha [2, 12] | inhibition at 60 g/ha ([3]; Frigate 0.2 % by volume) | inhibition at 30 g/ha [9, 15] | inhibition at 40 g/ha ([9]; Frigate 0.2 % by volume) | inhibition at 60 g/ha ([9]; Frigate 0.2 % by volume) | inhibition at 40 g/ha ([9]; Frigate: No addition) | inhibition at 60 g/ha ([9]; Frigate: No addition)
